In patent US20260146044A1, “AROMATIC COMPOUND, PHARMACEUTICAL COMPOSITION CONTAINING SAME, AND USE THEREOF” (Increland, priority 2023, published 2026):

Legend:
[1] = tested on: secretion levels of IL-6 in PBMC cells; experiment: Inhibition of R848-induced IL-6 secretion in PBMC (IL-6 ELISA); type: cell-based; conditions: human PBMC, 20 h compound pre-incubation, 24 h stimulation
Method: This experiment was carried out in RPMI 1640 medium containing 10% FBS/1% penicillin/streptomycin, with each of the compounds at an initial test concentration of 1 μM. The compound DMSO was dissolved to form a stock solution, which was gradiently diluted 4-fold with the culture medium to a 4× working solution concentration. The diluted solution was added to a 96-well plate with 50 μL per well. PBMC (batch No.: HPP20062307, Sichuan Hope Bio-tech Co., Ltd.) cells were counted, and diluted to a concentration of 2×10^6/mL. The diluted cells were added to the above compound-containing 96-well plate with 150 μL per well, fully mixed, and incubated in an incubator with 5% CO2 at 37° C. for 20 h. Then, R848 was further added until a final concentration of […], and the cells were further incubated in the incubator with 5% CO2 at 37° C. for additional 24 h. Then, after centrifugation at 2,000 rpm for 4 min, the supernatant was diluted 110×, and detected using an IL-6 ELISA kit. An OD450 value was read, and converted to an IL-6 concentration based on a standard curve, to calculate an IC50 value by fitting a dose-effect curve using GraphPad 5.0.

[2] = tested on: secretion levels of IL-6 in PBMC cells; experiment: Inhibition of LPS+IL-1β-induced IL-6 secretion in PBMC (IL-6 ELISA); type: cell-based; conditions: human PBMC, 24 h compound pre-incubation, 20 h stimulation
Method: This experiment was carried out in RPMI 1640 medium containing 10% FBS/1% penicillin/streptomycin, with each of the compounds at an initial test concentration of 1 μM. The compound DMSO was dissolved to form a stock solution, which was gradiently diluted 5-fold with the culture medium to a 4× working solution concentration. The diluted solution was added to a 96-well plate with 50 μL per well. PBMC (batch No.: HPP20062307, Sichuan Hope Bio-tech Co., Ltd.) cells were counted, and diluted to a concentration of 2×10^6/mL. The diluted cells were added to the above compound-containing 96-well plate with 150 μL per well, fully mixed, and incubated in an incubator with 5% CO2 at 37° C. for 24 h. Then, LPS and […] were further added to final concentrations of 10 ng/mL and 20 ng/mL, respectively, and the cells were further incubated in the incubator with 5% CO2 at 37° C. for 20 h. Then, after centrifugation at 2,000 rpm for 4 min, the supernatant was diluted 110×, and detected using an IL-6 ELISA kit. An OD450 value was read, and converted to an IL-6 concentration based on a standard curve, to calculate an IC50 value by fitting a dose-effect curve using GraphPad 5.0.

IRAK4 protein = target: T1, IRAK4 protein (Homo sapiens, UniProt Q9NWZ3); experiment: IRAK4 protein degradation in THP1 cells (Western blot); type: cell-based; conditions: 24 h
T1 construct: Effects of Compounds on IRAK4 Protein Degradation in THP1 Cells; endogenous in cells; host or cells: THP-1 cells
T1 sequence (Q9NWZ3 1-460): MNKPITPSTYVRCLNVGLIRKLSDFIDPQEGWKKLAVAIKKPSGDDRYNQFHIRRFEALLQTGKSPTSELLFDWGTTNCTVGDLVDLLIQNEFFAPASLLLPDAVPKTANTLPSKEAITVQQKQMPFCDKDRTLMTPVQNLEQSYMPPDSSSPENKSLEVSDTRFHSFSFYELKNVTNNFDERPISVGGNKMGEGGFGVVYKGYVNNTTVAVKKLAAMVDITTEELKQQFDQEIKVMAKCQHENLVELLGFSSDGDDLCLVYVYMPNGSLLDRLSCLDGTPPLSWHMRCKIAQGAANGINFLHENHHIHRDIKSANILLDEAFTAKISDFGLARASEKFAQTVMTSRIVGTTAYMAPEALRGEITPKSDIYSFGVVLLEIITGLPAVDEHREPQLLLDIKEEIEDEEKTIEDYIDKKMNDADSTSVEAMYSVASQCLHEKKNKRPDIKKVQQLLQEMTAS
Method: THP-1 cells were inoculated into a 96-well cell culture plate, with 5×10^4 cells and 100 μL of a culture medium per well. The cell culture plate was cultured in an incubator with 5% CO2 at 37° C. overnight. 100 nl of a well-prepared compound stock solution and a compound-free DMSO stock solution were respectively added to cells per well. The cell culture plate was incubated in an incubator with 5% CO2 at 37° C. for 24 h. One protease inhibitor tablet and one phosphatase inhibitor tablet were added to 20 mL of a cell lysis buffer, and they were gently mixed until complete dissolution. DTT at a final concentration of 200 mM was added to a 4× sample preparation buffer to prepare a 4× sample preparation working solution. 20× electrophoretic buffer was diluted to 1× with ultrapure water. 20× transfer buffer was diluted to 1× with ultrapure water, and 20% methanol was added. […] IRAK4 protein primary antibody working solution: 20 μl of IRAK4 antibody added to 20 mL of a blocking solution; β-Actin primary antibody working solution: 2 μl of beta-actin (13E5) Rabbit mAb antibody added to 20 mL of a blocking solution. IRAK4 protein secondary antibody working solution: Donkey Anti-Goat IgG H&L (HRP) diluted 1/5,000 in a blocking solution; 3-Actin secondary antibody working solution: Anti-rabbit IgG, RP-linked antibody diluted 1/10,000 in a blocking solution. The cell culture plate was centrifuged at 3,000 rpm for 3 min, and most of the culture medium was carefully pipetted. The cell plate was inverted, and centrifuged at 300 rpm for 30 s. 45 μL of a lysis buffer was added to each well. The mixture was shaken at 300 rpm for 30 s, allowed to stand on ice for 30 min, and pipetted 30 times at 20 min. 6 μL of 4× sample preparation working solution was added to 18 μL of protein supernatant for sample preparation, and the mixture was heated at 70° C. for 10 min. Remaining protein samples were stored at −80° C. In the precast gel, 8 μl of sample was loaded into each well for electrophoresis at a constant voltage of 120 V for about 60 min, transferred using a PVDF membrane at a constant current of 300 mA for 1 h, then blocked with a blocking solution at room temperature for 1 h, and incubated in a primary antibody working solution at 4° C. overnight. The membrane was washed with 1×TBST buffer for 3×10 min. The secondary antibody working solution was incubated at room temperature for 1 h. The membrane was washed with 1×TBST buffer for 3×10 min, and a chromogenic solution was used for exposure and color development.

[3] = Pharmacokinetic experiment on mice (iv and ig); type: in vivo; conditions: mouse, plasma; for bioavailability: ig 5.00 mg/kg vs iv 1.00 mg/kg, read-out: Oral bioavailability Fobs (%); for Cmax: read-out: Peak plasma concentration Cmax
[4] = Pharmacokinetic experiment on SD rats (iv and ig); type: in vivo; conditions: Sprague-Dawley, rat, plasma; for Cmax: read-out: Peak plasma concentration Cmax; for bioavailability: ig 5.00 mg/kg vs iv 1.00 mg/kg, read-out: Oral bioavailability Fobs (%)
Method: Pharmacokinetic experiment on SD rats: in this experiment, two administration modes: oral intragastric administration and tail vein injection were selected. Each of the compounds of the present patented invention was administered at an oral dose of 5 mg/kg at an administration volume of 10 mL/kg. […] Appropriate amounts of Solutol and H2O were proportionally added sequentially, and fully mixed ultrasonically by vortexing, to prepare a clear drug solution at 0.5 mg/mL. ICL004-protodrug was administered by intravenous injection at a dose of 1 mg/kg at an administration volume of 10 mL/kg. Right before use, an appropriate amount of the drug was accurately weighed, to prepare a final volume of 20% PEG 400 and 80% Saline. Appropriate amounts of PEG 400 and Saline were proportionally added sequentially, and fully mixed ultrasonically by vortexing, to prepare a clear drug solution at 0.1 mg/mL.
6 SD rats, each with body weight of 180-220 g, were randomly grouped into 2 groups. After fasting but with free access to water overnight, each […] in the first group was administered by gavage. 200 μL of blood was sampled from its eye socket into an anticoagulant tube respectively at each time point of 15 min, 30 min, 1 h, 2 h, 4 h, 6 h, 8 h, and 24 h after administration. Within one h, each of the blood samples was centrifuged at 10,000 rpm at 4° C. for 20 min (the sample was stored on an ice box prior to the centrifugation), and the supernatant (i.e., the plasma) was stored in a refrigerator at −20° C. for LC-MS/MS analysis. 200 μL of blood was sampled from the eye socket of each […] in the second group into an anticoagulant tube respectively at each time point of 5 min, 15 min, 30 min, 1 h, 2 h, 4 h, 8 h, and 24 h after administration by intravenous injection. Within one h, each of the blood samples was centrifuged at 10,000 rpm at 4° C. for 20 min (the blood sample was stored on an ice box prior to the centrifugation), and the supernatant, i.e., the plasma, was stored in a refrigerator at −20° C. for LC-MS/MS analysis.

[5] = Metabolic stability in human liver microsome; conditions: liver microsomes
Method: (§1) Blank incubation plates T60 and NCF60 were preheated for 10 min; liver microsome was diluted to 0.56 mg/mL in 100 mM phosphate buffer, 445 μL of the microsome working solution (0.56 mg/mL) was transferred to the preheated “incubation” plates T60 and NCF60, and then the incubation plates T60 and NCF60 were pre-incubated with continuous shaking at 37° C. for 10 min. 54 μL of the liver microsome was transferred to a blank plate, then 6 μL of a NAPDH cofactor was added to the blank plate, and then 180 μL of a quenching solution was added to the blank plate; 5 µL of a composite working solution (100 μM) was added to each of the microsome-containing incubation plates (T60 and NCF60), and the mixture was thoroughly mixed 3 times; 50 μL of a buffer was added to the NCF60 plate, and the mixture was thoroughly mixed 3 times. Timing was started; the plates were incubated with shaking at 37° C. for 60 min; and 180 μL of a quenching solution and 6 μL of the NAPDH cofactor were added to a quenching plate TO. The plates were ensured to be cooled to prevent evaporation. For the T60 plate, the mixture was thoroughly mixed 3 times, and 54 μL of the mixture was immediately transferred to the quenching plate at the time point of 0 min. Then, 44 μL of the NAPDH cofactor was added to the incubation plate (T60). Timing was started; and the plate was incubated with shaking at 37° C. for 60 min. At 5, 15, 30, 45, and 60 min, 180 μL of the quenching solution was added to the quenching plate, mixed once, and then 60 μL of sample was continuously transferred from the plate T60 to the quenching plate at each time point.
(§2) For NCF60, the mixture was mixed once, and at the time point of 60 min, 60 μL of sample was transferred from the NCF60 incubator to the quenching solution-containing quenching plate. All sampling plates were shaken for 10 min, then centrifuged at 4,000 rpm at 4° C. for 20 min. 80 µL of the supernatant was transferred to 240 μL of HPLC water, and mixed using a plate shaker for 10 min.

[6] = Metabolic stability in mouse liver microsome; conditions: liver microsomes
Method: as §1, §2

[7] = po, BALB/c Mice, ig, 5.00 mg/kg

Cc1nn(C2CCC(=O)NC2=O)c2cccc(N3CC4CN(C[C@H]5CC[C@H](n6cc7cc(NC(=O)c8cnn9cccnc89)c(N8CCO[C@H](C)C8)cc7n6)CC5)CC4C3)c12 (some centres unmarked) [TM-55]
IC50 [1]: 5.09 nM
IC50 [2]: 7.63 nM
DC50 (IRAK4 protein): 4.81 nM

Cc1nn(C2CCC(=O)NC2=O)c2cccc(OC3CCN(C[C@H]4CC[C@H](n5cc6cc(NC(=O)c7cnn8cccnc78)c(N7CCOCC7)cc6n5)CC4)CC3)c12 (some centres unmarked) [TM-56]
IC50 [2]: 5.49 nM
bioavailability ([3]; po, ICR Mice): 91.9%
AUC ([3]; po, ICR Mice, ig, 5.00 mg/kg): 2510 ng·h/mL
AUC(0-inf) ([3]; po, ICR Mice, ig, 5.00 mg/kg): 2820 ng·h/mL
Cmax ([3]; po, ICR Mice, ig, 5.00 mg/kg): 220 ng/mL
AUC ([3]; ICR Mice, iv, 1.00 mg/kg): 524 ng·h/mL
AUC(0-inf) ([3]; ICR Mice, iv, 1.00 mg/kg): 613 ng·h/mL
Cmax ([3]; ICR Mice, iv, 1.00 mg/kg): 81 ng/mL
AUC ([4]; iv, 1.00 mg/kg): 1900 ng·h/mL
AUC(0-inf) ([4]; iv, 1.00 mg/kg): 1980 ng·h/mL
Cmax ([4]; iv, 1.00 mg/kg): 477 ng/mL
bioavailability ([4]; po): 10.7%
AUC ([4]; po, ig, 5.00 mg/kg): 1060 ng·h/mL
AUC(0-inf) ([4]; po, ig, 5.00 mg/kg): 1120 ng·h/mL
Cmax ([4]; po, ig, 5.00 mg/kg): 96 ng/mL
half-life at 1 µM [5]: 1.35 h
half-life at 1 µM [6]: 1.17 h

Cc1nn(C2CCC(=O)NC2=O)c2cccc(N3CCN(C[C@H]4CC[C@H](N5Cc6cc(NC(=O)c7cnn8cccnc78)c(N7CCOCC7)cc6C5=O)CC4)CC3)c12 (some centres unmarked) [TM-58]
IC50 [1]: 3.57 nM
IC50 [2]: 3.53 nM

Cc1nn(C2CCC(=O)NC2=O)c2cccc(N3CC4CN(C[C@H]5CC[C@H](N6Cc7cc(NC(=O)c8cnn9cccnc89)c(N8CCOCC8)cc7C6=O)CC5)CC4C3)c12 (some centres unmarked) [TM-59]
IC50 [1]: 2.21 nM
IC50 [2]: 3.57 nM

Cc1nn(C2CCC(=O)NC2=O)c2cccc(N3CCN(C[C@H]4CC[C@H](n5cc6cc(NC(=O)c7cnn8cccnc78)c(N7C[C@H]8C[C@@H]7CO8)cc6n5)CC4)CC3)c12 (some centres unmarked) [TM-61]
IC50 [1]: 3.01 nM
IC50 [2]: 7.06 nM

Cc1nn(C2CCC(=O)NC2=O)c2cccc(N3CCC(CN4CCC(N5Cc6cc(NC(=O)c7cnn8cccnc78)c(N(C)C)cc6C5=O)CC4)CC3)c12 (centres unmarked) [TM-66]
IC50 [1]: 262 nM
IC50 [2]: 19.4 nM
DC50 (IRAK4 protein): 0.57 nM

Cc1nn(C2CCC(=O)NC2=O)c2cccc(N3CCCN(C[C@H]4CC[C@H](n5cc6cc(NC(=O)c7cnn8cccnc78)c(N(C)C)cc6n5)CC4)CC3)c12 (some centres unmarked) [TM-96]
IC50 [2]: 7.18 nM
DC50 (IRAK4 protein): 0.58 nM

Cc1nn(C2CCC(=O)NC2=O)c2cccc(N3CCC4(CC3)CN(C[C@H]3CC[C@H](n5cc6cc(NC(=O)c7cnn8cccnc78)c(N(C)C)cc6n5)CC3)C4)c12 (some centres unmarked) [TM-101]
IC50 [2]: 1.17 nM
DC50 (IRAK4 protein): < 0.1 nM
bioavailability ([3]; po, BALB/c Mice): 20.1%
AUC [3, 7]: 3370 ng·h/mL
AUC(0-inf) [3, 7]: 3550 ng·h/mL
Cmax [3, 7]: 356 ng/mL
AUC ([3]; BALB/c Mice, iv, 1.00 mg/kg): 3390 ng·h/mL
AUC(0-inf) ([3]; BALB/c Mice, iv, 1.00 mg/kg): 3520 ng·h/mL
Cmax ([3]; BALB/c Mice, iv, 1.00 mg/kg): 580 ng/mL
AUC ([4]; iv, 1.00 mg/kg): 625 ng·h/mL
AUC(0-inf) ([4]; iv, 1.00 mg/kg): 674 ng·h/mL
Cmax ([4]; iv, 1.00 mg/kg): 151 ng/mL
bioavailability ([4]; po): 11.1%
AUC ([4]; po, ig, 5.00 mg/kg): 374 ng·h/mL
AUC(0-inf) ([4]; po, ig, 5.00 mg/kg): 435 ng·h/mL
Cmax ([4]; po, ig, 5.00 mg/kg): 23 ng/mL

Cc1nn(C2CCC(=O)NC2=O)c2cccc(N3CC4CN(C[C@H]5CC[C@H](n6cc7cc(NC(=O)c8cnn9cccnc89)c(N(C)C)cc7n6)CC5)CC4C3)c12 (some centres unmarked) [TM-102]
IC50 [2]: 5.94 nM
DC50 (IRAK4 protein): 0.9 nM

Cc1nn(C2CCC(=O)NC2=O)c2cncc(N3CCC(CN4CCC(n5cc6cc(NC(=O)c7cnn8cccnc78)c(N(C)C)cc6n5)CC4)CC3)c12 (centres unmarked) [TM-106]
IC50 [2]: 54.9 nM
DC50 (IRAK4 protein): 0.044 nM

Cc1nn(C2CCC(=O)NC2=O)c2ccnc(N3CCC4(CC3)CN(C[C@H]3CC[C@H](n5cc6cc(NC(=O)c7cnn8cccnc78)c(N(C)C)cc6n5)CC3)C4)c12 (some centres unmarked) [TM-113]
IC50 [2]: 0.62 nM
DC50 (IRAK4 protein): 1.06 nM
